Experimental data from the supplement of paper PMC8671470.

Experiments:
Settings in all cases: 72 h
BV-173 [1] = test system: BV-173
Method in brief: (§1)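 For the IC50, dose–response curves were fitted with a log-logistic model. The data came from fifteen myeloid leukaemia cell lines grown in RPMI 1640 at densities in the linear growth range and incubated in 384-well plates for 72 h at 37 °C under 5% CO2. Doses were five tenfold steps from 1 to 10,000 nM in duplicate, and luminescent ATP viability was normalised to vehicle and to a positive control at 10 µM before four-parameter fitting.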

HEL [2] = test system: HEL
Method in brief: as §1

HL-60 [3] = test system: HL-60
Method in brief: as §1

K-562 [4] = test system: K-562
Method in brief: as §1

KCL-22 [5] = test system: KCL-22
Method in brief: as §1

KG-1 [6] = test system: KG-1
Method in brief: as §1

KU-812 [7] = test system: KU-812
Method in brief: as §1

LAMA-84 [8] = test system: LAMA-84
Method in brief: as §1

ML-2 [9] = test system: ML-2
Method in brief: as §1

MOLM-13 [10] = test system: MOLM-13
Method in brief: as §1

MV4-11 [11] = test system: MV4-11
Method in brief: as §1

Mono-Mac-6 [12] = test system: Mono-Mac-6
Method in brief: as §1

NOMO-1 [13] = test system: NOMO-1
Method in brief: as §1

SHI-1 [14] = test system: SHI-1
Method in brief: as §1

THP-1 [15] = test system: THP-1
Method in brief: as §1

BV-173 [16] = assay: cell viability (% survival relative to DMSO control, bortezomib = 0%); higher = less cytotoxic
Method in brief: (§2)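 In 384-well plates pre-printed with compounds at 1, 10, 100, 1000 or 10000 nM, duplicate wells received cells from 10 AML and 5 CML lines at densities within the linear growth range. The plates stayed at 37 °C with 5% CO2 for 72 h before CellTiter-Glo luminescence was recorded. Each entry is averaged percent survival. Scaling placed vehicle at 100% and a 10 µM positive control at 0%.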

HEL [17] = assay: as above
Method in brief: as §2

HL-60 [18] = assay: as above
Method in brief: as §2

K-562 [19] = assay: as above
Method in brief: as §2

KCL-22 [20] = assay: as above
Method in brief: as §2

KG-1 [21] = assay: as above
Method in brief: as §2

KU-812 [22] = assay: as above
Method in brief: as §2

LAMA-84 [23] = assay: as above
Method in brief: as §2

ML-2 [24] = assay: as above
Method in brief: as §2

MOLM-13 [25] = assay: as above
Method in brief: as §2

MV4-11 [26] = assay: as above
Method in brief: as §2

Mono-Mac-6 [27] = assay: as above
Method in brief: as §2

NOMO-1 [28] = assay: as above
Method in brief: as §2

SHI-1 [29] = assay: as above
Method in brief: as §2

THP-1 [30] = assay: as above
Method in brief: as §2

C=CC(=O)c1ccc(O)cc1 [4-Acryloylphenol]
Settings | IC50 (cell viability) [µM]
BV-173 [1] | 3.1
HEL [2] | 6.6
HL-60 [3] | > 10
K-562 [4] | > 10
KCL-22 [5] | 6.68
KG-1 [6] | > 10
KU-812 [7] | 7.96
LAMA-84 [8] | > 10
ML-2 [9] | 9.62
MOLM-13 [10] | > 10
MV4-11 [11] | 4.22
Mono-Mac-6 [12] | > 10
NOMO-1 [13] | 3.44
SHI-1 [14] | > 10
THP-1 [15] | > 10

cell viability [%]
Settings | 1 nM | 10 nM | 100 nM | 1000 nM | 10000 nM
BV-173 [16] | 82.2 | 86.6 | 104 | 93 | -1.1
HEL [17] | 80 | 90.5 | 94.7 | 115 | 26.6
HL-60 [18] | 90 | 80.9 | 97.5 | 105 | 94.6
K-562 [19] | 86.2 | 85.5 | 101 | 114 | 66.7
KCL-22 [20] | 86.1 | 89.5 | 102 | 124 | 28.2
KG-1 [21] | 83.7 | 92.7 | 99.8 | 114 | 86.2
KU-812 [22] | 82.9 | 97.5 | 96.4 | 97.7 | 36.1
LAMA-84 [23] | 86.7 | 91.9 | 99.9 | 105 | 56.7
ML-2 [24] | 90 | 90.7 | 105 | 125 | 46.9
MOLM-13 [25] | 81.7 | 79.4 | 83.1 | 124 | 78.7
MV4-11 [26] | 91 | 89.9 | 94.3 | 137 | -1.55
Mono-Mac-6 [27] | 86.3 | 99.1 | 111 | 103 | 54.6
NOMO-1 [28] | 88 | 92.6 | 107 | 102 | 2.21
SHI-1 [29] | 99.7 | 92.7 | 102 | 114 | 103
THP-1 [30] | 89.8 | 88.1 | 102 | 99.4 | 72.8
